Source: patent US10940240B2, “Catheter locking solution and catheter locking therapy” (Medical Components, Inc., priority 2016, dated 2021)

Tested on: Staphylococcus aureus CIP 65.25 (methicillin resistant)
Assay: anti-biofilm assay on 24 h biofilms formed on Chronoflex catheter segments in microfermentors
Type: cell-based
Conditions: for effect on bacterial survival / lysis of bacterial cells: biofilm exposed 24 hours at 37° C., complete lysis = under the threshold of detection (10 CFU per KT segment); for number of viable cells on catheter segment (Moyenne): biofilm on catheter segment exposed to solution for 24 hours at 37° C., triplicate, limit of detection 10 CFU per KT segment; for effect in lysing the bacteria compared with 15 v/v % EtOH: EtOH alone
Description: For example, preliminary assay testing of anti-biofilm properties of a TCEA solution comprising a 10.0 w/v % concentration of trisodium citrate at and 15.0, 20.0 and 25.0 v/v % concentrations of ethyl alcohol (i.e., ethanol or EtOH) were conducted. The testing was performed in the following manner.
Ethanol 15%, 20% and 25% (v/v)+trisodium citrate 10% (w/v)
Controls: Ethanol 15%, 20% and 25% • Trisodium citrate 10% • Water for injection The material tested were segments, each 1 centimeter long, of sterile catheters Chronoflex (“catheter segments”). The strains used were Staphylococcus aureus CIP 65.25 (methicillin resistant).
Biofilms were formed in aerated microfermentors with catheter segments fixed onto an internal removable glass slide of the microfermentors. Strains from frozen stocks were cultivated in Trypticase Soja broth (“TSB”). An inoculum of 10^8 cells was used to inoculate microfermentors containing the catheter segments. A continuous flow of 54 milliliters per hour (“mL/h”) of TSB and constant aeration with sterile pressed air at 0.3 bar were used to obtain continuous flow-through culture conditions. After 24 hours of incubation, the catheter segments were removed from the incubator and separated from their respective microfermentor device. Each catheter segment was then carefully rinsed in 1 mL of saline.
To determine the number of viable cells within the biofilms formed onto the catheter segments before being subjected to or made to be in contact with the test solutions (i.e., before treatment), the biofilms (triplicate for each strain) were resuspended in TSB by sonication and vortexing. Serial dilutions of the resulting suspensions were performed and plated onto appropriate agar plates to determine the number of viable cells after overnight incubation at 37 degrees Celsius (“° C.”).
In parallel, catheter segments to be tested were placed in a tube containing 1 mL of the different lock solutions: (i) ethanol at 15%, 20% and 25% (vol/vol); (ii) trisodium citrate at 10% (vol/vol); (iii) ethanol/tri sodium citrate mixing solutions (15%-10%, 20%-10%, 25%-10% (vol/vol)), wherein ethanol concentrations were 15%, 20%, and 25%, and trisodium citrate concentration was 10%; and (iv) water for injection as control. For every organism, the experiments were repeated in triplicate, and during each treatment assay catheter segments were exposed to the different solutions for 24 hours at 37° C. Subsequently, the catheter segments were removed, rinsed once with saline, and the number of adherent viable microorganisms determined, as described above. In FIG. 1, the number of viable cells is expressed as Colony Forming Unit (“CFU”), and the bacteria count is expressed as a decimal logarithm, log 10. (Note: FIG. 1 expresses the CFU as UFC, which is an acronym for unite formant colonie and is the same unit of measure as CFU.). The limit of detection in the experimental conditions is 10 CFU per KT segment, thus the threshold of detection is 10 CFU per KT segment. KT is a catheter sample used during testing, and its length can range from 3 to 5 centimeters. A KT can be a specimen of a catheter that have been cut (1 meter long usually) and placed into a microfermentor apparatus so that biofilms are formed at a surface of the catheter. Once the biofilm is formed and place into contact with the catheter lock solution to be tested, a measured the number of bacterial viable cells still present at the surface of the catheter is obtained. The limit of detection is 10 Colony Forming Units per specimen of catheter.
During the study, the disclosed catheter locking solution had been tested to ascertain whether it can eradication viable bacterial and prevent regrowth of biofilm. […] The catheter locking solution had been tested against Staphylococcus aureus (methicillin resistant).

Row | Compound | effect on bacterial survival / lysis of bacterial cells | number of viable cells on catheter segment (Moyenne) | effect on bacterial survival / lysis of bacterial cells (listed as EtOH alone (at 15 v/v %)) | effect on bacterial survival / lysis of bacterial cells (listed as EtOH alone, at 15 v/v % concentration) | effect on bacterial survival / lysis of bacterial cells (listed as Ethyl alcohol at a concentration of 15.0 v/v %) | bacterial cells after treatment (decreased from 1.00 E+07) (preliminary in vitro testing) | effect in lysing the bacteria compared with 15 v/v % EtOH
1 | O=C([O-])CC(O)(CC(=O)[O-])C(=O)[O-].[Na+].[Na+].[Na+] [citrate 10% (m/v), trisodium citrate] | no effect on the bacterial survival | 3.64E+06 CFU | – | – | – | – | –
2 | ethyl alcohol [EtOH 15% (v/v)] | – | 2.12E+02 CFU | did not lyse all the bacterial cells | did not lyse all the bacterial cells | did not lyse all bacterial cells | 1.00E+02 | –
3 | ethyl alcohol [EtOH 20% (v/v)] | – | 1.00E+01 CFU | – | – | – | – | significantly greater effect in lysing the bacteria
4 | ethyl alcohol [EtOH 25% (v/v)] | – | 1.00E+01 CFU | – | – | – | – | significantly greater effect in lysing the bacteria
